Laboratory results taken from patent US20070010669A1, “Novel class of cytodifferentiating agents and histone deacetylase inhibitors, and methods of use thereof” (priority 1999, published 2007).
Read-outs that look alike come from different tables or passages of the source.

What was measured:
[1] = tested on: Murine erythroleukemia (MEL) cells; test: MEL cell differentiation assay (benzidine assay; cell growth by Coulter Counter); assay type: cell-based; settings: for MEL Differentiation % B+ / MEL Differentiation Opt.: Table 1; for MEL Differentiation % B+: benzidine-positive cells at Opt. concentration; for MEL Differentiation Opt.: optimal concentration; for MEL Diff Cells/ml × 10^−5: cell growth
Procedure: (§1) The MEL cell differentiation assay was used to assess the ability of Compound 1 to induce terminal differentiation. MEL cells (logarithmically dividing) were cultured with the indicated concentrations of Compound 1. Following a 5-day culture period, cell growth was determined using a Coulter Counter and differentiation was determined microscopically using the benzidine assay to determine hemoglobin protein accumulation on a per cell basis.
as §1, with “2” for “1”, “2.” for “1.”, “period” for “period, cell growth was determined using a Coulter Counter and”
as §1, with “3” for “1”, “3.” for “1.”, “period” for “period, cell growth was determined using a Coulter Counter and”, “microsdopically” for “microscopically”
as §1, with “4” for “1”, “4.” for “1.”, “period” for “period, cell growth was determined using a Coulter Counter and”
All the compounds which were prepared were tested. […] Table 2 is compiled from experiments similar to the experiments described in Examples 7-10 above.

HDAC = HDAC (Homo sapiens, UniProt Q13547); test: Inhibition of the enzyme HDAC (Examples 12 and 13); assay type: biochemical; settings: read-out: ID50 as inhibitor of HDAC
Sequence of HDAC (Q13547 whole entry): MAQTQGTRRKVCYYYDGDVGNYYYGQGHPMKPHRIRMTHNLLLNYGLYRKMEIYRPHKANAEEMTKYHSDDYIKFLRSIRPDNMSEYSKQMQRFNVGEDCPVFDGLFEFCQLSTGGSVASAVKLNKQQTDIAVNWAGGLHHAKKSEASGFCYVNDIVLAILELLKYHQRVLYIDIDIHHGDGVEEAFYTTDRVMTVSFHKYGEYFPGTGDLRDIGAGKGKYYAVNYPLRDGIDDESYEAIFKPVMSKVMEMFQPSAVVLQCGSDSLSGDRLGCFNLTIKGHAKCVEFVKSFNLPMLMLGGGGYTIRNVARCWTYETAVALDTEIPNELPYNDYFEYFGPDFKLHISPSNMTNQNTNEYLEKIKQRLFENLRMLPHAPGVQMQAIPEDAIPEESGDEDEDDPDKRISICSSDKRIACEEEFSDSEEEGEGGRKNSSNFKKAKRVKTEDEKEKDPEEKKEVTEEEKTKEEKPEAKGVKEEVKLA

[2] = target: T1, affinity purified human epitope-tagged (Flag) HDAC1 (Homo sapiens, UniProt Q13547); test: Histone Deacetylase (HDAC) enzymatic activity, [3H]acetyl-labeled histone substrate; assay type: biochemical; set-up: Flag
T1 sequence (Q13547 whole entry): as above
Procedure: (§2) Substrate ([^3H]acetyl-labeled murine erythroleukemia cell-derived histone) was added and the samples were incubated for 20 min at 37° C. in a total volume of 30 μl. The reaction were then stopped and released acetate was extracted and the amount of radioactivity released determined by scintillation counting.
as §2, with “Substrate ([^3H]acetyl-labelled” for “Substrate ([^3H]acetyl-labeled”, “The reactions” for “The reaction”, “and relaesed” for “and released”
as §2, with “([^3H]acetyl-labelled” for “([^3H]acetyl-labeled”, “reactions” for “reaction”
The effect was assayed by incubating the enzyme preparation in the absence of substrate on ice for 20 minutes with the indicated amounts of compound. Substrate([^3H]acetyl-labeled murine erythroleukemia cell-derived histones) was added and the samples were incubated for 20 minutes at 37° C. in a total volume of 30 μl. The reactions were then stopped and released acetate was extracted and the amount of radioactivity released determined by scintillation counting.

[3] = tested on: CWR22 human prostate xenograft; settings: 50 mg/kg/day
From the text: SAHA is currently in Phase I Clinical Trials in patients with solid tumors.

[4] = tested on: acetylated histones H3 and H4 in peripheral blood mononuclear cells; test: Acetylated histones in peripheral blood mononuclear cells of patients under treatment; assay type: in vivo; settings: IV infusion daily ×3, FIG. 10
Procedure: FIG. 10. SAHA causes accumulation of acetylation histones H3 and H4 in peripheral blood […] cells in patients. SAHA was administered by IV infusion daily ×3. Samples were isolated before (Pre), following infusion (Post) and 2 hours after infusion.
The in vivo effect of SAHA has been studied using the CWR22 human prostate xenograft in mice (68).

[5] = target: T1, affinity purified human epitope-tagged (Flag) HDAC1; settings: cited from earlier work
HDAC3 = HDAC3 (Homo sapiens, UniProt O15379); settings: cited from earlier work
Sequence of HDAC3 (O15379 whole entry): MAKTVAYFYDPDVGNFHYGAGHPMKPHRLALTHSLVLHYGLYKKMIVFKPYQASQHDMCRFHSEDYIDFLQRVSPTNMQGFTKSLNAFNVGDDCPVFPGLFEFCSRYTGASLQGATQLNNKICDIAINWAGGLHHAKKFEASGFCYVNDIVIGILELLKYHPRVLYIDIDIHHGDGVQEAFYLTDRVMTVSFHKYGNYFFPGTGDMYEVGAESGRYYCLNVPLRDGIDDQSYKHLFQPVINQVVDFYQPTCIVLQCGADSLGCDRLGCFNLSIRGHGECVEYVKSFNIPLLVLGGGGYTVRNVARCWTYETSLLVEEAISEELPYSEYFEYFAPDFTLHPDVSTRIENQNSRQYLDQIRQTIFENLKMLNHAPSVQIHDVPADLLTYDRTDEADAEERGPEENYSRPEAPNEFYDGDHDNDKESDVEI
Sequence of HDAC3 (Q9Y618 whole entry, further chain): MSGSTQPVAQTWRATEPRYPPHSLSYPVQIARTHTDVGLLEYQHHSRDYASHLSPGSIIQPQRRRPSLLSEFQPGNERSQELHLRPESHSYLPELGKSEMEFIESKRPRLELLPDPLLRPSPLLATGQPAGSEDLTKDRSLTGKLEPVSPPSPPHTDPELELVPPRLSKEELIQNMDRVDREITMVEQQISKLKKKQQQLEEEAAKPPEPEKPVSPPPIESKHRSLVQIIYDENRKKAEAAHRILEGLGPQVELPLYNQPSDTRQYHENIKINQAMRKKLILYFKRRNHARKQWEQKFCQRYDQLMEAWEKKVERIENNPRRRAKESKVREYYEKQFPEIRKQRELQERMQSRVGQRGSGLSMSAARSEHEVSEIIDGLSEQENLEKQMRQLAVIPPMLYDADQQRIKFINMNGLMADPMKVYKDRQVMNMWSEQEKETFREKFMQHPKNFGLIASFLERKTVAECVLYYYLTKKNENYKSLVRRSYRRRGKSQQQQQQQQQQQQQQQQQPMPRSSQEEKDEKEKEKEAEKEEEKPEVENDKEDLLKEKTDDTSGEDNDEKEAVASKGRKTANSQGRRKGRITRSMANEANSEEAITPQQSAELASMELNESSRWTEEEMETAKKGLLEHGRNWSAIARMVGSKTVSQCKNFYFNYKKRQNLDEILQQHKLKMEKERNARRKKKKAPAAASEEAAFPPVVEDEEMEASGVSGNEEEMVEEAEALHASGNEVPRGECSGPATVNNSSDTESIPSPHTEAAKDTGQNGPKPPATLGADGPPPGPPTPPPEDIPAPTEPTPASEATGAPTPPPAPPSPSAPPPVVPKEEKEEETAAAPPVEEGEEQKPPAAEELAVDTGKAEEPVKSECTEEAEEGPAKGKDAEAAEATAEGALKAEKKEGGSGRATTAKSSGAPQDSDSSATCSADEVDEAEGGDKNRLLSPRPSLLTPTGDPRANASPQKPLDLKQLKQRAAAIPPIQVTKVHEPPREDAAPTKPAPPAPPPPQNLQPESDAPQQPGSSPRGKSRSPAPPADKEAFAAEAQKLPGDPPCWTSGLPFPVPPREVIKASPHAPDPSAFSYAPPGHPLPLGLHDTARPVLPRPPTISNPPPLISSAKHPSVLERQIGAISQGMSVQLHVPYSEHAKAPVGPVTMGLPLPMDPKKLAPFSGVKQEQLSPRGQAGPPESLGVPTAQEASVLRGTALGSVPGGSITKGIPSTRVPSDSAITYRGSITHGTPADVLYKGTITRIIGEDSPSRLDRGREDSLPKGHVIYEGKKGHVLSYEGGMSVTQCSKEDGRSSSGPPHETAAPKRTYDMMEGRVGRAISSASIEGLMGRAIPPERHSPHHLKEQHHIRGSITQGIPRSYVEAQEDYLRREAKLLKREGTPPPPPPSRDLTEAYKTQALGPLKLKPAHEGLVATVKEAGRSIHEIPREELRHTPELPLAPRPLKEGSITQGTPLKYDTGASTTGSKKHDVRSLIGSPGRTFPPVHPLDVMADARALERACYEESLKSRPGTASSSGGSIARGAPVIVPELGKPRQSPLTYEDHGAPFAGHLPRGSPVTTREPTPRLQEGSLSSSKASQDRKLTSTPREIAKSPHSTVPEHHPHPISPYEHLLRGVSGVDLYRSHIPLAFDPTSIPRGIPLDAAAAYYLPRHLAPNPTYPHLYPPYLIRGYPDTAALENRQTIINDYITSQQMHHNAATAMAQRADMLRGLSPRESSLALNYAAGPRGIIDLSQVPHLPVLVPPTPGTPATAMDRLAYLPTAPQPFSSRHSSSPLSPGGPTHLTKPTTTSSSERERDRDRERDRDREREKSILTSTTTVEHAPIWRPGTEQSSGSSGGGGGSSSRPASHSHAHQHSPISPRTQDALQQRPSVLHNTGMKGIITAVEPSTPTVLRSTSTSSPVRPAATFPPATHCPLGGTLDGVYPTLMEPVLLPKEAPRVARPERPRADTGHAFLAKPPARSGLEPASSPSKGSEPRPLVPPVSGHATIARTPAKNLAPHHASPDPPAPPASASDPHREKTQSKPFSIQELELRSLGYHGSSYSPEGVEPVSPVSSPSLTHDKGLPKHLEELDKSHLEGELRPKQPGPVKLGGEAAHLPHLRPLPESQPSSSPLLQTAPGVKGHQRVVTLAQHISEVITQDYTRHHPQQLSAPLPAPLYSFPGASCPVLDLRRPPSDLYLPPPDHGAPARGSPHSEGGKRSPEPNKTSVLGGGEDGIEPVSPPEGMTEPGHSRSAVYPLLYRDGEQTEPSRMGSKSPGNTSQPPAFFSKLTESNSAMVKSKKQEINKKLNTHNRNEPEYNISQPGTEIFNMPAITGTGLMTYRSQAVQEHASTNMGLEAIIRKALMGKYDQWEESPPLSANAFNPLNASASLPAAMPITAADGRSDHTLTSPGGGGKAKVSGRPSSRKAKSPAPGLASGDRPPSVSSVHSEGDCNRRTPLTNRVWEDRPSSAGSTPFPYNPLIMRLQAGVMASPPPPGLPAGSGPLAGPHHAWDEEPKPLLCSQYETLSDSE

Row | Compound | concentration able to induce MEL cell differentiation ([1]; FIGS. 1, 3, 4, 6, 5-day culture) [nM] | MEL Differentiation % B+ [1] [%] | MEL Differentiation Opt. ([1]; 5-day culture) [nM] | MEL Diff % B+ ([1]; Table 2) [%] | MEL Diff Cells/ml × 10^−5 ([1]; Table 2) [Cells/ml × 10^−5] | IC50 (HDAC; Example 12) [nM] | IC50 ([2]; FIGS. 2, 5, 7, read-out: ID50 of HDAC1 enzymatic activity) [nM] | IC50 ([2]; Table 1, read-out: HDAC Inhibition ID50) [nM] | IC50 ([2]; Table 2, unit nM, read-out: HDAC inh ID50) [nM] | optimal dose for the cytodifferentiation of MEL cells ([1]; Example 12) [µM] | MEL Diff Opt. ([1]; Table 2, cells printed in μM) [µM] | reduction in mean final tumor volume compared to controls [3] [%] | toxicity [3] | acetylated histones H3 and H4 in the tumor xenograft ([3]; FIG. 9) | acetylated histones H3 and H4 in peripheral blood mononuclear cells [4] | IC50 (HDAC) [nM] | inhibition of affinity purified HDAC1 [5] | inhibition of affinity purified HDAC3 (HDAC3)
1 | O=C(CCCCC[C@H](NC(=O)OCc1ccccc1)C(=O)Nc1cccc2cccnc12)NO [Compound 4, N-benzyloxycarbonyl-(L)-α-aminosuberoyl-8-quinolinamide-ω-hydroxamic acid] | 40 | 8 | 40 | 8 | 13 | 2.5 | < 10 | < 10 | 2.5 | – | – | – | – | – | – | – | – | –
2 | O=C(CCCCCCC(=O)Nc1ccccc1)NO [SAHA, suberoylanilide hydroxamic acid, reference compound] | – | 68 | 2500 | 68 | 3.6 | – | – | – | – | 2.5 | 2.5 | 97 | no .apparent toxicity | increase | accumulation | 1000 | inhibits | inhibits
